Laboratory results reported in US20250314668A1, “DNAZYMES FOR SENSING AND IMAGING TARGET MOLECULES” (BOARD OF REGENTS, THE UNIVERSITY OF TEXAS SYSTEM, priority 2024, published 2025).
Positions count from the first letter of the chain named. Entries after “also recorded” stand apart in the source; their conditions may differ. d = 2'-deoxy (DNA); m = 2'-O-methyl; r = 2'-OH (RNA)

Key:
HT1080 cells = test: Fe^2+ and Fe^3+ imaging in cells treated with SAS and Fer-1, with or without NCOA4 knock down; type: cell-based
Protocol: Ferroptosis is a Fe-related cell death. To understand how Fe^2+ and Fe^3+ have a role in this process, the cells were incubated with Sulfasalazine (SAS), which inhibits System Xc- and induces ferroptosis. Elevated Fe^2+ and Fe^3+ levels, as well as an elevated Fe^3+/Fe^2+ ratio over time, were observed when compared with nontreated controls. This elevation is inhibited by Ferrostatin-1 (Fer-1), an antioxidant that inhibits lipid peroxidation by scavenging alkoxyl radicals. […] This observation indicates the association between Fe levels and lipid peroxidation.
To understand how labile iron and iron redox changes are associated with cell ferroptosis, the study focused on the regulatory effects of NCOA4 on Fe^2+ and Fe^3+. NCOA4 is a key gene that regulates iron homeostasis through ferritinophagy, degrading iron storage protein, and releasing iron into the cell. To understand how NCOA4 influences Fe^2+ and Fe^3+, the study used the CRISPR/Cas technique to knock down NCOA4 expressions. As shown with the western blot, single guide RNAs knocked down the expression of NCOA4 in the HT1080 cells. In these cells, reduced Fe^2+ and Fe^3+ signals were detected as indicated by the DNAzyme sensors. In the meanwhile, the redox ratio of Fe^3+/Fe^2+ elevated, indicating the NCOA4 may not only regulate the labile iron amount but also the Fe redox states.
On the contrary, when inhibiting ferroptosis with Fer-1, reduced Fe^2+ and Fe^3+ levels were observed.

[1] = PAGE gel activity assays of Fe^2+ H5 DNAzyme (cleavage site, truncation, pH, mutation combinations, selectivity); type: biochemical; settings: for cleavage by the original Fe^2+ H5 DNAzyme: presence of Fe^2+, anaerobic conditions; for relative activity of combined point mutations versus original: original FAM-labeled substrate, 100 μM FeCl2, 2 hours, room temperature
Text: RNA Cleavage Dependence of Fe^2+ H5 and Fe^3+ B12 DNAzymes: To investigate the Fe^2+ H5 and Fe^3+ B12 DNAzymes, various cleavage site modifications were incorporated into the substrate strands. The original Fe^2+ H5 DNAzyme was combined with Fe^2+ H5 substrate strands containing either a 2′-hydroxyl (2′OH), 2′-hydrogen (2′H), or 2′O-methyl (2′OMe) at the cleavage site. The original Fe^2+ H5 DNAzyme cleaves the Fe^2+ H5 substrate strand containing 2′OH at the cleavage site in the presence of Fe^2+ under anaerobic conditions. […] Similarly, the original Fe^3+ B12 DNAzyme was combined with Fe^3+ B12 substrate strands containing either 2′OH, 2′H, or 2′OMe at the cleavage site. The original Fe^3+ B12 DNAzyme cleaves the Fe^3+ B12 substrate strand containing 2′OH at the cleavage site in the presence of Fe^3+. […] These findings highlight the critical role of the 2′OH group at the cleavage site in enabling DNAzyme activity for both Fe^2+ H5 and Fe^3+ B12 systems, as substitutions with 2′H or 2′OMe impede cleavage.
Truncations of Fe^2+ H5 and Fe^3+ B12 DNAzymes' Binding Arms: To further investigate the Fe^2+ H5 and Fe^3+ B12 DNAzymes, the DNAzymes were truncated at the 5′ and 3′ ends and tested using the FAM-labeled original substrate strand through activity assays assessed by PAGE gel. The activity of the Fe^2+ H5 DNAzyme with the original substrate strand remains relatively unchanged when 1 or 2 nucleotides are truncated from either the 3′ or 5′ end. […] The activity of the Fe^3+ B12 DNAzyme with the original substrate strand is maintained when 1 or 2 nucleotides are truncated from the […]. A notable reduction in relative intensity occurs when 3, 4, or 5 nucleotides are truncated from the 5′ end. Additionally, truncation of 1, 2, or 3 nucleotides from the 3′ end also results in a decrease in relative intensity.
pH Dependency of Fe^2+ H5 and Fe^3+ B12 DNAzymes: To further investigate the impact of reaction conditions on catalytic activity, the study evaluated the influence of pH system. For the Fe^2+ H5 DNAzyme, the study assessed cleavage efficiency across a pH range of 6.0 to 7.5 in MOPS, MES, Bis-Tris, or Tris under anaerobic conditions with 100 μM FeCl2.
Combination of Fe^2+ H5 DNAzyme strand Improvements: Given the enhanced activity observed with several point mutations in the Fe^2+ H5 DNAzyme strand, the study investigated whether combinations of these point mutations would further improve the DNAzyme's activity. The study designed 41 combinations of the 6-point mutations located at positions 39 (A39T and A39G), 40 (A40C), 51 (G51C), 52 (C52G), and 54 (T54C), along with the original Fe^2+ H5. Each sequence was tested with the original FAM-labeled Fe^2+ substrate strand in the presence of 100 μM FeCl2 for 2 hours at room temperature. […] Certain combinations of mutations enhance activity, while others diminish it, indicating interactions that are not merely additive. The specific positions of the mutations play a critical role in determining the overall activity, with some combinations inducing beneficial conformational changes and others disrupting key structural elements. These findings highlight the importance of understanding the contextual interplay of mutations for optimizing DNAzyme performance. The identified combinations that increase activity offer valuable insights for the future engineering of more efficient DNAzyme variants.
Combining Enhanced Fe^2+ H5 and Fe^3+ B12 DNAzymes Single Point Mutations: To assess the potential additive effects of combining enhanced Fe^2+ H5 DNAzyme strands with substrate strands, the study evaluated the relative intensities of point mutations within these strands. Reactions were conducted in a buffer solution containing 25 mM Bis-Tris, 200 mM NaCl at pH 6.5, with 250 nM each of the mutated H5 DNAzyme strand and the FAM-labeled mutated H5 substrate strand, and 100 μM FeCl2. […]

[2] = Point mutation gel cleavage assay of Fe^2+ H5 DNAzyme and substrate (heat map); type: biochemical; settings: 100 μM FeCl2, pH 6.5, anaerobic, overnight; for activity of mutated substrate strand normalized to original Fe^2+ H5 Substrate: original DNAzyme strand; for activity of mutated DNAzyme strand normalized to original Fe^2+ H5 DNAzyme: FAM-labeled original substrate
Protocol: (§1) FIG. 7 depicts a heat map illustrating the impact of point mutations within the catalytic core of the Fe^2+ H5 DNAzyme, against the unaltered Fe^2+ H5 substrate strand for comparative analysis with 25 mM Bis Tris, 200 mM NaCl at pH 6.5 with 100 μM FeCl2 in anaerobic conditions. The reaction occurred overnight at room temperature and analyzed by polyacrylamide gel electrophoresis.
as §1, with “8” for “7”, “Substrate strand,” for “DNAzyme,”, “DNAzyme” for “substrate”
(§2) Point mutations were intentionally introduced into the Fe^2+ H5 DNAzyme, and subsequently assessed in comparison to the unaltered Fe^2+ H5 Substrate under controlled reaction conditions. These conditions include a solution containing 25 mM Bis Tris, 200 mM NaCl at pH 6.5, with concentrations set at 250 nM for both the mutated H5 DNAzyme Strand and the FAM-labeled Original H5 Substrate Strand, alongside 100 μM FeCl2. The reaction proceeded overnight at room temperature under anaerobic conditions, followed by analysis via electrophoresis on a 15% denaturing gel.
as §2, with “Fe^2+ H5 Substrate Strand, and subsequently” for “Fe^2+ H5 DNAzyme, and subsequently”, “Fe^2+ H5 DNAzyme under controlled” for “Fe^2+ H5 Substrate under controlled”, “both the Original H5 DNAzyme” for “both the mutated H5 DNAzyme”, “the FAM-labeled mutated H5 Substrate” for “the FAM-labeled Original H5 Substrate”

CCOC(=O)c1ccc(NC2CCCCC2)c(N)c1 [Fer-1, Ferrostatin-1]
effect of Fer-1 on the SAS-induced elevation of Fe levels (HT1080 cells; Fer-1 added to SAS-treated cells): inhibited; also recorded: reduced | Fe^2+ and Fe^3+ levels in control guide RNA cells (HT1080 cells): reduced | Fe^2+ and Fe^3+ levels compared with nontreated controls (HT1080 cells; over time): slightly reduced

O=C(O)c1cc(/N=N/c2ccc(S(=O)(=O)Nc3ccccn3)cc2)ccc1O [SAS, Sulfasalazine]
Fe^2+ and Fe^3+ levels in control guide RNA cells (HT1080 cells): elevated | Fe^2+ and Fe^3+ levels compared with nontreated controls (HT1080 cells; over time): Elevated | Fe^3+/Fe^2+ ratio compared with nontreated controls (HT1080 cells; over time): elevated | increase in Fe^2+ and Fe^3+ levels in NCOA4 downregulated cells (HT1080 cells; similar treatments as control cells): smaller increase

Fe^2+ H5 Original Substrate (2′H) (CGGACCCGTATCAATCTCACGTATAGGATATCCA; DNA, backbone not given here)
cleavage by the original Fe^2+ H5 DNAzyme [1]: does not cleave

Fe^2+ H5 Original Substrate (2′OMe) (CGGACCCGTATCAATCTCACGTATAGGATATCCA; sugars from the 5' end d24 m1 d9, backbone not given here)
cleavage by the original Fe^2+ H5 DNAzyme [1]: does not cleave

Fe^2+ H5 Substrate A13C (CGGACCCGTATCCATCTCACGTATAGGATATCCA; DNAzyme; sugars from the 5' end d24 r1 d9, backbone not given here; FAM-labeled in assays, further chemistry not fully specified)
activity of mutated substrate strand normalized to original Fe^2+ H5 Substrate [2]: heightened activity

Fe^2+ H5 Substrate A14T (CGGACCCGTATCATTCTCACGTATAGGATATCCA; DNAzyme; sugars from the 5' end d24 r1 d9, backbone not given here; FAM-labeled in assays, further chemistry not fully specified)
activity of mutated substrate strand normalized to original Fe^2+ H5 Substrate [2]: heightened activity

Fe^2+ H5 Substrate T11C (CGGACCCGTACCAATCTCACGTATAGGATATCCA; DNAzyme; sugars from the 5' end d24 r1 d9, backbone not given here; FAM-labeled in assays, further chemistry not fully specified)
activity of mutated substrate strand normalized to original Fe^2+ H5 Substrate [2]: heightened activity

B1: Fe^2+ H5 DNAzyme A39T (nucleic acid)
chain: TGGATATCTCCTAGCCAGACTGTTATGTGTGATACGGCTAACTTCGTGATGCCTCTACGGGTCCG
modifications: DNA, backbone not given here
activity of mutated DNAzyme strand normalized to original Fe^2+ H5 DNAzyme [2]: heightened activity

B2: Fe^2+ H5 DNAzyme Combo 31 (nucleic acid)
chain: B1 chain with T39G, A40C, G51C, C52G
modifications: DNA, backbone not given here
relative activity of combined point mutations versus original [1]: decreased the relative activity

B3: Fe^2+ H5 DNAzyme Combo 29 (nucleic acid)
chain: B1 chain with T39G, G51C, C52G
modifications: DNA, backbone not given here
relative activity of combined point mutations versus original [1]: increased the relative activity

B4: Fe^2+ H5 DNAzyme C52G (nucleic acid)
chain: B1 chain with T39A, C52G
modifications: DNA, backbone not given here
activity of mutated DNAzyme strand normalized to original Fe^2+ H5 DNAzyme [2]: heightened activity

B5: Fe^2+ H5 DNAzyme T54C (nucleic acid)
chain: B1 chain with T39A, T54C
modifications: DNA, backbone not given here
activity of mutated DNAzyme strand normalized to original Fe^2+ H5 DNAzyme [2]: heightened activity

B6: Fe^2+ H5 DNAzyme G51C (nucleic acid)
chain: B1 chain with T39A, G51C
modifications: DNA, backbone not given here
activity of mutated DNAzyme strand normalized to original Fe^2+ H5 DNAzyme [2]: heightened activity

B7: Fe^2+ H5 DNAzyme A39G (nucleic acid)
chain: B1 chain with T39G
modifications: DNA, backbone not given here
activity of mutated DNAzyme strand normalized to original Fe^2+ H5 DNAzyme [2]: heightened activity

B8: Fe^2+ H5 DNAzyme Combo 41 (nucleic acid)
chain: B1 chain with T39G, A40C, G51C, C52G, T54C
modifications: DNA, backbone not given here
relative activity of combined point mutations versus original [1]: increased the relative activity

B9: Fe^2+ H5 DNAzyme Combo 30 (nucleic acid)
chain: B1 chain with T39G, A40C, T54C
modifications: DNA, backbone not given here
relative activity of combined point mutations versus original [1]: increased the relative activity

B10: Fe^2+ H5 DNAzyme A40C (nucleic acid)
chain: B1 chain with T39A, A40C
modifications: DNA, backbone not given here
activity of mutated DNAzyme strand normalized to original Fe^2+ H5 DNAzyme [2]: heightened activity
